Measurements from patent US20020198219A1, “2-pyridinamine compositions and related methods” (priority 2000, published 2002).
Where two headings read alike, the source gives them in different places.

Experiments:
P19 neurons [1] = test: A23187-induced toxicity in P19 neurons (Alamar blue); assay type: cell-based, murine; details: Mus musculus, Neuron, 24 h
Procedure: Cells were then assayed for Alamar blue fluorescence. […] Data points are represented as percent of control cells ±standard error.

Insulin Receptor Kinase = target: T1, Insulin Receptor Kinase (Homo sapiens, UniProt P06213); test: Kinase assay (33P Flashplate), Insulin Receptor Kinase; assay type: biochemical; details: mean of at least two curves
T1 construct: Insulin Receptor Kinase consists of residues 941-1313 of the cytoplasmic domain of the beta-subunit of the human insulin receptor
T1 sequence (P06213 980-1352): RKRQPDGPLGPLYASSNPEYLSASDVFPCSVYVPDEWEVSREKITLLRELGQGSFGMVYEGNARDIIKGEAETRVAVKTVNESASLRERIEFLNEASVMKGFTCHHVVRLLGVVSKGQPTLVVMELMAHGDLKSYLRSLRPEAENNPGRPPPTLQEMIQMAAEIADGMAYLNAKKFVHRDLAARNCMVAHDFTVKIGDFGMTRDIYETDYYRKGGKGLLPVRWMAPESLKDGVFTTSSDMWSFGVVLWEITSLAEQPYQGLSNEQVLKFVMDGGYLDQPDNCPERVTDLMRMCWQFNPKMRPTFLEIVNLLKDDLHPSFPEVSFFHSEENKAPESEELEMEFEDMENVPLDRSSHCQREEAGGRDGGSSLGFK
Procedure: (§1) The general procedure used to assay for kinase activity was as follows: a kinase reaction mix was prepared in 50 mM Tris-HCl pH=8, 10 mM MgCl2, 0.1 mM Na3VO4, 1 mM DTT, 10 μM ATP, 0.25-1 μM biotinylated peptide substrate, 0.2-0.8 [Curies per well ^33P-γ-ATP [2000-3000 Ci/mmol]. Assay conditions varied slightly for each protein kinase, for example, insulin receptor kinase requires 10 mM MnCl2 for activity and calmodulin-dependent protein kinase requires calmodulin and 10 mM CaCl2. Reaction mix was dispensed into the wells of a streptavidin-coated Flashplate and 1 μl drug stock in 100% DMSO was added to a 100 μL reaction volume resulting in a final concentration of 1% DMSO in the reaction. Enzyme was diluted in 50 mM Tris-HCl pH=8.0, 0.1% BSA and added to each well. […] Test compounds were assayed in duplicate at 8 concentrations ranging from 100 μM to 10 μM in one order of magnitude steps. […] The IC50 was calculated from the dose response curve of the percent inhibition of the maximum signal in the assay according to the formula [max signal−background/test compound signal−background×(100)]=% inhibition by graphing the percent inhibition against the log concentration of test compound.
(§2) Casein Kinase 1 is a truncation at amino acid 318 of the C-terminal portion of the rat CK1 delta isoform produced in E. coli.

[2] = tested on: differentiated P19 neurons; test: Differentiated P19 excitotoxicity assay (glutamate/glycine-induced death, Alamar Blue); assay type: cell-based, murine; details: for IC50: read-out: IC50 for Neuroprotection [lower-upper 95% C.I.]; for Emax: read-out: Maximal Efficacy for Neuroprotection
Procedure: Alamar Blue fluorescence, an indicator of cell viability, was used to determine cell viability after an NMDA-induced cytotoxic insult. […] However, since raw fluorescence counts vary from experiment to experiment, FIGS. 2A, 2B, and 2C are expressed as a percent of control.
(§3) Glutamate toxicity dose response in the presence of a constant 1 mM glycine concentration was measured in the differentiated P19 neurons. The curve generated through the data points is the average of 6 separate dose response curves. Data points are represented as the percent of control cells ±standard error. % control=(([Glutamate]exp−[Glutamate]max)/(Controlvehicle−[Glutamate]max))×100.
Data points are the average ±standard error of three separate experiments.
These cells were used to measure the effects of various known kinase inhibitors (Compound Identification (ID) column in Table I) upon cytotoxicity-induced by NMDA. First, P19 cells were differentiated as described in Example 2. Then cells were exposed to 3 mM of glutamate in the presence of 1 mM glycine.
Cell viability was determined. Compounds that prevented excitotoxicity were determined by measuring the percentage of viable cells compared to differentiated P19 cells that were not presented with a toxic insult (Table I).
Cell viability was measured using two methods. The first method was a confocal, single-cell fluorescence imaging-based method using the live cell dye carboxy-fluorescein diacetate (CFDA). CFDA labels the cell bodies and processes of living cells. […] CFDA fluorescence was measured using a modified Attofluor Imager device (Atto Instruments, Rockville Pike, Md.). Cells were labeled with 1 uM CFDA for 15 min in media, then placed onto the stage of the Attofluor microscope. The dye was excited by light from a mercury lamp source passed through a 488 nm bandpass filter of 10 nm band width, passed through a CARV real-time confocal spinning disk module (Atto Instruments, Rockville, Md.), and then passed through a 40× oil immersion objective (Zeiss Fluar, NA=1.3). Emitted light was transmitted through a 495 nm dichroic mirror, collected to an Attofluor intensified CCD camera, and images were visualized using Attofluor RatioVision software (Atto Instruments, Rockville, Md.).
The second method for measuring cell viability was a plate reader method. Cells plated into black 96 well plates (Packard viewplates) are loaded with 5% Alamar Blue dye (Biosource International). Alamar Blue is a dye that takes advantage of mitochondrial reductases to convert non-fluorescent resazurin to fluorescent resorufin (excitation 535 nm, emission 580 nm). Baseline fluorescence counts were read at room temperature in a Wallac plate reader immediately after addition of Alamar blue. Fluorescence counts of cell viability were taken the same way after 1 hour incubation at 37° C. Fluorescence was expressed as a percent of control, untreated cells after subtraction of background fluorescence. Live/dead cells were confirmed visually with a light microscope. […]

PK A = target: T2, PK A (Bos taurus, UniProt P00517); test: Kinase assay (33P Flashplate), Protein Kinase A; assay type: biochemical, bovine; details: mean of at least two curves; read-out: PK A
T2 construct: Protein Kinase A is the catalytic subunit of cAMP-dependent protein kinase-A purified from bovine heart; from tissue; host or cells: bovine heart
Procedure: Assay conditions varied slightly for each protein kinase, for example, insulin receptor kinase requires 10 mM MnCl2 for activity and calmodulin-dependent protein kinase requires calmodulin and 10 mM CaCl2. Reaction mix was dispensed into the wells of a streptavidin-coated Flashplate and 1 μl drug stock in 100% DMSO was added to a 100 μL reaction volume resulting in a final concentration of 1% DMSO in the reaction. Enzyme was diluted in 50 mM Tris-HCl pH=8.0, 0.1% BSA and added to each well. The reaction was incubated for one hour at 30° C. in the presence of compound. After one hour the reaction mix was aspirated from the plate and the plate was washed with PBS containing 100 mM EDTA. The plate was read on a scintillation counter to determine ^33P-γ-ATP incorporated into the immobilized peptide. Test compounds were assayed in duplicate at 8 concentrations ranging from 100 μM to 10 μM in one order of magnitude steps. A maximum and minimum signal for the assay was determined on each plate. The IC50 was calculated from the dose response curve of the percent inhibition of the maximum signal in the assay according to the formula [max signal−background/test compound signal−background×(100)]=% inhibition by graphing the percent inhibition against the log concentration of test compound. Known inhibitor compounds appropriate for the kinase being assayed were also included on each plate. […]

Casein Kinase 1 = target: T3, Casein Kinase 1 (Rattus norvegicus, UniProt Q06486); test: Kinase assay (33P Flashplate), Casein Kinase 1; assay type: biochemical; details: mean of at least two curves
T3 construct: a truncation at amino acid 318 of the C-terminal portion of the rat CK1 delta isoform; host or cells: E. coli
T3 sequence (Q06486 1-317): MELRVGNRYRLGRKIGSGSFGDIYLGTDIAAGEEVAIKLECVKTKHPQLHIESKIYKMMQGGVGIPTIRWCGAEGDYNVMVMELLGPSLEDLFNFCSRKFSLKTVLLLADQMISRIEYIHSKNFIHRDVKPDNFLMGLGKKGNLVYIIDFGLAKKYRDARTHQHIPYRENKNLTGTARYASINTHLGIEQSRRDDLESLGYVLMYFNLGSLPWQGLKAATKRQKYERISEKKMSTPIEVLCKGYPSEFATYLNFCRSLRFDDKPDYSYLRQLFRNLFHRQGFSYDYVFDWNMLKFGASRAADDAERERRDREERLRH
Procedure: as §1, §2

Calmodulin Kinase = target: T4, Calmodulin Kinase (Rattus norvegicus, UniProt P11275); test: Kinase assay (33P Flashplate), Calmodulin Kinase; assay type: biochemical; details: mean of at least two curves
T4 construct: host or cells: insect cells
T4 sequence (P11275 1-325): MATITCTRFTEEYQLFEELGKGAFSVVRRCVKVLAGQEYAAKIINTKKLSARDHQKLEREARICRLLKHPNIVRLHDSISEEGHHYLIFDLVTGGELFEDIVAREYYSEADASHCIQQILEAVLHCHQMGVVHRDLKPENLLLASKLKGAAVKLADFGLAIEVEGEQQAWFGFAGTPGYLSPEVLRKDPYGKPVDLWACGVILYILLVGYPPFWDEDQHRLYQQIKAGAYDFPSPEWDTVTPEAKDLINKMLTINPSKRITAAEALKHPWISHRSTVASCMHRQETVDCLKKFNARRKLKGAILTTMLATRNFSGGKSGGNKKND
Procedure: as §1, §2

Casein Kinase 2 = target: T5, Casein Kinase 2 (Homo sapiens, UniProt P68400); test: Kinase assay (33P Flashplate), Casein Kinase 2; assay type: biochemical; details: mean of at least two curves
T5 construct: host or cells: E. coli
T5 sequence (P68400 whole entry): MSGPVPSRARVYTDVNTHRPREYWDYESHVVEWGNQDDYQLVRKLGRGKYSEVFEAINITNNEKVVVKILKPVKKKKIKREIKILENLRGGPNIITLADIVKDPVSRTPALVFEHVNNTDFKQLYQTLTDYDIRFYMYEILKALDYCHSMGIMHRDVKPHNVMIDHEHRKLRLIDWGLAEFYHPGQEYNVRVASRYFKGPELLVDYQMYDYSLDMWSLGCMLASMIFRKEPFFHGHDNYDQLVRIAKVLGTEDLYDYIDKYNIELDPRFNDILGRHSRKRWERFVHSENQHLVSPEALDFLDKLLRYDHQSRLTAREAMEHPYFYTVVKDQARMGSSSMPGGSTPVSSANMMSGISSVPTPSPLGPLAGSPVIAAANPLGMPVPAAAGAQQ
T5 sequence (P67870 whole entry partner): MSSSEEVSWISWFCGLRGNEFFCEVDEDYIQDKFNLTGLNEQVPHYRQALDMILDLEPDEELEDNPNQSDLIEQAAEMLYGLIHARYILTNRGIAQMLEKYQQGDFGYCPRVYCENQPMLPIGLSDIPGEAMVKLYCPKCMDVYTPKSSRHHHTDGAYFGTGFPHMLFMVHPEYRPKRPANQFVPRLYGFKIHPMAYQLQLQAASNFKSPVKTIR
Procedure: as §1, §2

PKC-γ = target: T6, PKC-γ (Homo sapiens, UniProt P05129); test: Kinase assay (33P Flashplate), PKC-γ; assay type: biochemical; details: mean of at least two curves
T6 construct: host or cells: insect cells
Procedure: as §1, §2

CDK1 = target: T7, CDK1 (Homo sapiens, UniProt P06493); test: Kinase assay (33P Flashplate), CDK1; assay type: biochemical; details: mean of at least two curves
T7 construct: host or cells: insect cells
T7 sequence (P06493 whole entry): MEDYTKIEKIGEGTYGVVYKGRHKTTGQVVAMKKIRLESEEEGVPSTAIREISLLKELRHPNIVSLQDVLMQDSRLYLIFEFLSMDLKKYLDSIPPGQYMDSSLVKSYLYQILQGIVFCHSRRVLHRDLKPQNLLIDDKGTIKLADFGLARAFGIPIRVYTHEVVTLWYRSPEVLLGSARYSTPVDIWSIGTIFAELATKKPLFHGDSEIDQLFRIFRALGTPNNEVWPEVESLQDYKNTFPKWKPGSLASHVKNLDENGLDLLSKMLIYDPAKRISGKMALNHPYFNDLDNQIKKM
T7 sequence (P14635 whole entry partner): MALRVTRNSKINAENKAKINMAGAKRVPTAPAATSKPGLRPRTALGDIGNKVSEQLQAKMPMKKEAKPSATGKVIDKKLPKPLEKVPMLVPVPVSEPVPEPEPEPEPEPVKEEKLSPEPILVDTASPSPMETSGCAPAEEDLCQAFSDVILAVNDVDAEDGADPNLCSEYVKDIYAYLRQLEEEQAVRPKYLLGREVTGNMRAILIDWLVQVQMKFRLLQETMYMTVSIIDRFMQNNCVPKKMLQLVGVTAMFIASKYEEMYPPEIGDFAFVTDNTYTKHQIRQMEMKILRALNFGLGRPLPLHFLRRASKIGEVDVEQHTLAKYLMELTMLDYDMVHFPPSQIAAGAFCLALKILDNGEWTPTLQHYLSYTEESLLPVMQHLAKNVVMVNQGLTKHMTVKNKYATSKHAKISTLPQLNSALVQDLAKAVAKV
Procedure: as §1, §2

P19 neurons [3] = details: mouse, 1 mM
Procedure: as §3

CAMKII = details: from the literature; read-out: Potency, CAMKII; cited from earlier work
p60^c-src = p60^c-src (Homo sapiens, UniProt P12931); details: from the literature; read-out: Potency, p60^c-src; cited from earlier work
EGF receptor = EGF receptor (Homo sapiens, UniProt P00533); details: from the literature; read-out: Potency, EGF receptor; cited from earlier work
Sequence of EGF receptor (P00533 25-1210): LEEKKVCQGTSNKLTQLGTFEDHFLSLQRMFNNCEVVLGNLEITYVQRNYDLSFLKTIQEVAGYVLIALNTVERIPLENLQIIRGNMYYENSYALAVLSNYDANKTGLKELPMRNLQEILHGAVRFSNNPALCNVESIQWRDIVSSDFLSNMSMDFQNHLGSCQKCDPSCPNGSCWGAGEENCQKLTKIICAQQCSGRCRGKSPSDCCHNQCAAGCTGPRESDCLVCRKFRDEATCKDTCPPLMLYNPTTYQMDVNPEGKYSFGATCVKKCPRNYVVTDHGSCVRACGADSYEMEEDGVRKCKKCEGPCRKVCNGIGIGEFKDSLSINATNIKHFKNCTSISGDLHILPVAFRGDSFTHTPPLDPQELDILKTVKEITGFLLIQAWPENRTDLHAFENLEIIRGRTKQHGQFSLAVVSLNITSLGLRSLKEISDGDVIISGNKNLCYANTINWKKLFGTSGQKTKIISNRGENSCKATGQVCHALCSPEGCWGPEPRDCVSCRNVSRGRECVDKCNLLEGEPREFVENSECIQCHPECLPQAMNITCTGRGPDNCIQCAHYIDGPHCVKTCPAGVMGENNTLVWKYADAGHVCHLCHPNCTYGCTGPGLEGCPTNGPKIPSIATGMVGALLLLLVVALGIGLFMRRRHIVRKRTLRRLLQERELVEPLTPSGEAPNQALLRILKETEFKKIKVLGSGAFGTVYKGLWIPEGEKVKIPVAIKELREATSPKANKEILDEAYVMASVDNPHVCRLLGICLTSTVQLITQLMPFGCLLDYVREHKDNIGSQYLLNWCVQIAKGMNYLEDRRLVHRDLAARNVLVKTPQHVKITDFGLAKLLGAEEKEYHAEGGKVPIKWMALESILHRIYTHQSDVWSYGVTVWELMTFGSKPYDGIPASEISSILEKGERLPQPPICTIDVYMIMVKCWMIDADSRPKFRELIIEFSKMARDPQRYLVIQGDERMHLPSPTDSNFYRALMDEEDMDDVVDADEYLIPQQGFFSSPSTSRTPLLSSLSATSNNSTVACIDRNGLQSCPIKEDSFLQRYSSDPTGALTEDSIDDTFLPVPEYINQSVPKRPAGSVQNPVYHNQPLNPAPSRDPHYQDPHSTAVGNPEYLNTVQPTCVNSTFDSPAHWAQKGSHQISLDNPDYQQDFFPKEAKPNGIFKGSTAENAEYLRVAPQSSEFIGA

NMDA receptor [4] = details: 3 mM glutamate, 1 mM glycine; MK-801 100 μM, U0126 10 μM
Procedure: Cells were loaded with 5 μM Fura-2-AM (Molecular Probes) for 1 hr at 37° C. They were washed once with Hank's balanced salt solution (HBSS, Gibco BRL), and assayed in HBSS buffer. Cells were placed onto the stage of a modified ATTOFLUOR™ Imager (Atto Instruments, Rockville Pike, Md.). High speed, dual excitation of fura-2 was carried out using a RATIOARC™ High-Speed Excitor (Atto Instruments). Mercury lamp light was passed through 334 nm or 380 nm bandpass filters (10 nm band width), and then passed through a 20× objective (Zeiss, Plan-Apochromat, NA=0.75) at a rate of 2.5 Hz. Emitted light was transmitted through a 400 nm dichroic mirror, and collected to an ATTOFLUORT intensified CCD camera. Ratio-images were acquired, and the average intensity of the images when excited at 334 nm and 380 nm was analyzed using ATTOFLUOR RATIOVISION™ software (Atto Instruments, Rockville, Md.).
MK-801 was administered 24 hours prior to assay. Traces are the average ±standard error from three separate experiments for each condition. […] MK-801 inhibition of [^3H]-MK-801 binding was assayed in P19 membranes. MK-801 concentrations are expressed as 10^−x Molar. Data points represent the mean ±standard error from eight experiments. % control=((CPM−CPMbottom)/(CPMtop−CPMbottom))×100.
Traces are the average ±standard error from four separate experiments for each condition.

NMDA receptor [5] = details: P19 membranes; concentration-dependent
Procedure: MK-801 inhibition of [^3H]-MK-801 binding was assayed in P19 membranes. MK-801 concentrations are expressed as 10^−x Molar. Data points represent the mean ±standard error from eight experiments. % control=((CPM−CPMbottom)/(CPMtop−CPMbottom))×100.
Data points represent the mean ±standard error from eight experiments.

PKA = PKA (Homo sapiens, UniProt P17612); details: from the literature; read-out: Potency, PKA; cited from earlier work
PKC = details: from the literature; read-out: Potency, PKC; cited from earlier work
PKG = target: T8, PKG (Homo sapiens, UniProt Q13976); details: from the literature; read-out: Potency, PKG; cited from earlier work
T8 sequence (Q13976 1-671): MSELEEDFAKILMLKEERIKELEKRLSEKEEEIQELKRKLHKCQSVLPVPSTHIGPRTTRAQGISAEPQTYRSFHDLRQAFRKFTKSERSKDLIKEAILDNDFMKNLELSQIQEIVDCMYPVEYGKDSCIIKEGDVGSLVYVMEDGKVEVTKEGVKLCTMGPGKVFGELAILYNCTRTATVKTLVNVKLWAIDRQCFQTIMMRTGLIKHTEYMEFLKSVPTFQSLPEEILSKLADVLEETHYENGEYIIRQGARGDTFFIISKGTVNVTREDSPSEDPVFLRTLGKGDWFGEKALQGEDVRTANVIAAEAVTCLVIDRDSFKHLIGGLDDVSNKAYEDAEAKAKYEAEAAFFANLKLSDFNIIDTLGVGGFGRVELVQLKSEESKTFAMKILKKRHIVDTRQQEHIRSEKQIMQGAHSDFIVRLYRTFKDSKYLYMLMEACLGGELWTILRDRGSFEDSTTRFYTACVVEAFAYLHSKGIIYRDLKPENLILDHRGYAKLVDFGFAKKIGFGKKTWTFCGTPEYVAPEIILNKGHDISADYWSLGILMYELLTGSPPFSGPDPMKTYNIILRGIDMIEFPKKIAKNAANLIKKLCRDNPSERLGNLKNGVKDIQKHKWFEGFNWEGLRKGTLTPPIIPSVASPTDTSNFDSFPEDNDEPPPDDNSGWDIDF

[6] = Mus musculus, Neuron, 3 mM glutamate + 1 mM glycine
[7] = 3 mM glutamate + 1 mM glycine, mean of three separate curves

## CNc1ccc2oc(C[C@H]3O[C@@]4(CC[C@H]3C)O[C@H]([C@H](C)C(=O)c3ccc[nH]3)[C@H](C)C[C@H]4C)nc2c1C(=O)O [A23187]
P19 neurons [1]; read-out: EC50 for A23187 toxicity, 24 hours, in the absence of U0126
  EC50: 0.52 µM
P19 neurons [1]; read-out: EC50 for A23187 toxicity, 24 hours, in the presence of 10 μM U0126
  EC50: 0.833 µM

## COc1cc(N)nc2[nH]c(-c3ccc(F)cc3)c(-c3ccncc3)c12 [Compound A]
Insulin Receptor Kinase
  IC50: > 100 µM
[2]; Mus musculus, Neuron, 3 mM glutamate + 1 mM glycine, mean of three separate curves
  IC50: 9.7 µM
[2]; [6]
  Emax: > 80%
PK A
  IC50: > 100 µM
Casein Kinase 1
  IC50: 0.116 µM
Calmodulin Kinase
  IC50: > 100 µM
Casein Kinase 2
  IC50: > 100 µM
PKC-γ
  IC50: 8.35 µM
CDK1
  IC50: > 100 µM

## N[C@@H](CCC(=O)O)C(=O)O [Glutamate]
[2]; 3 mM glutamate and 1 mM glycine for 24 hours
  reduction in Alamar blue fluorescence: 60%
[2]; constant 1 mM glycine, 24 hours, average of 6 curves, read-out: Glutamate toxicity EC50
  EC50: 8.1 µM

## NCC(=O)O [Glycine]
P19 neurons [3]
  effect on basal P19 neuron viability: did not affect P19 neuron viability

## CN([C@@H](Cc1ccc(OS(=O)(=O)c2cccc3cnccc23)cc1)C(=O)N1CCN(c2ccccc2)CC1)S(=O)(=O)c1cccc2cnccc12 [KN62]
CAMKII
  Ki: ~0.9 µM
[2]; 3 mM glutamate + 1 mM glycine
  Maximal Efficacy for Neuroprotection: <10%
[2]; [7]
  IC50 for Neuroprotection [lower-upper 95% C.I.]: Ineffective

## O=C(O)c1cc(N(Cc2ccccc2O)Cc2cc(O)ccc2O)ccc1O [Lavendustin A]
[2]; 3 mM glutamate + 1 mM glycine
  Maximal Efficacy for Neuroprotection: <25%
[2]; [7]
  IC50: > 10 µM
p60^c-src
  IC50: ~0.5 µM
EGF receptor
  IC50: ~0.011 µM

## [Li] [Lithium]
[2]; [6]
  Emax: < 10%

## C[C@]12N[C@H](Cc3ccccc31)c1ccccc12 [MK-801]
[2]; 3 mM glutamate and 1 mM glycine-induced P19 neuron death
  Maximal protection against glutamate toxicity: close to control levels
NMDA receptor [4]
  effect on glutamate/glycine-induced intracellular calcium response: significantly inhibited
NMDA receptor [5]
  inhibition of [3H]-MK-801 binding: 100%

## Calphostin C
PKA
  IC50: > 50 µM
[2]; 3 mM glutamate + 1 mM glycine
  Maximal Efficacy for Neuroprotection: ˜50%
[2]; [7]
  IC50: > 1 µM
p60^c-src
  IC50: > 50 µM
PKC
  IC50: ~0.05 µM
PKG
  IC50: > 25 µM
